Results published in ChEMBL document CHEMBL5724696, “Autophagy assay results for EUbOPEN Chemogenomics Library” (2024).

Assays:
U2OS [1] = test: (§1) Here: values are normalized to the positive (DMSO; basel flux = defined as 100% suppression) and negative (250nM Torin1; mTOR inhibitor; maximal inducer of autophagy defined as 0% suppression) control compounds and represented as % of ER-phagy suppression. […] The impact of autophagy induction on cells is complex and depends on the affected target. […] Of note, treatment concentrations may be sub-optimal for specific compounds, leading to false negative annotations.; type: functional, Homo sapiens; conditions: Compound Concentration 1 uM, Culturing Media DMEM, 1 % Penicillin/Streptomycin, 10% Fetal bovin serum Add-On: blasticidin, Screening Media Control DMEM, 10% Fetal bovin serum Add-On: 1 µg/ml Doxycyclin, Screening Media Samples DMEM, 10% Fetal bovin serum Add-On: 1 µg/ml Doxycyclin 250nM Torin1
U2OS [2] = test: as §1; type: functional, Homo sapiens; conditions: Compound Concentration 1 uM, Culturing Media DMEM, 1 % Penicillin/Streptomycin, 10% Fetal bovin serum Add-On: blasticidin, Screening Media Control DMEM, 10% Fetal bovin serum Add-On: 1 µg/ml Doxycyclin, Screening Media Samples DMEM, 10% Fetal bovin serum Add-On: 1 µg/ml Doxycyclin 250nM Torin1; remark: listed apart in the source

Compound	ER-phagy suppression (U2OS [1]; Timepoint 12 hours)	ER-phagy suppression (U2OS [1]; Timepoint 24 hours)	ER-phagy suppression (U2OS [1]; Timepoint 36 hours)	ER-phagy suppression (U2OS [1]; Timepoint 60 hours)	ER-phagy suppression (U2OS [2]; Timepoint 12 hours)	ER-phagy suppression (U2OS [2]; Timepoint 24 hours)	ER-phagy suppression (U2OS [2]; Timepoint 36 hours)	ER-phagy suppression (U2OS [2]; Timepoint 54 hours)
COc1ccccc1-c1cc(Nc2cccc(CS(N)(=O)=O)c2)ncn1	64.2077%	50.2137%	56.273%	39.1119%	-2.879%	2.7876%	9.9584%	17.8632%
Fc1ccc(-c2ncn(Cc3nc[nH]n3)c2-c2ccnc3[nH]ccc23)cc1	1.163%	2.249%	8.909%	19.5799%	-8.055%	-11.2707%	-18.4467%	-16.7104%
COc1cc(C2c3cc4c(cc3[C@H](O)[C@H]3COC(=O)[C@@H]23)OCO4)cc(OC)c1OC (stereo partly specified)	13.7164%	-2.596%	7.675%	9.356%	19.9758%	6.76%	5.125%	8.089%
CN1CCN(Cc2ccc(Nc3ncc(Cl)c(Nc4ccccc4S(=O)(=O)N(C)C)n3)cc2)CC1 [DUBERMATINIB]	-20.0629%	4.178%	12.5384%	29.2244%	-2.878%	-1.86%	7.295%	21.9101%
O=C(O)CSc1ncnc2sc(-c3cc4ccccc4s3)cc12	-22.3534%	-5.037%	-13.712%	-10.482%	-2.052%	-18.7288%	-21.1701%	-12.8701%
NC(=O)c1ccc(N(C(N)=O)c2c(F)cccc2F)nc1-c1ccc(F)cc1F [VX-702]	31.8026%	34.6886%	33.7769%	30.7144%	0.2881%	-13.3426%	-11.8024%	0.1703%
Nc1c(C(=O)NCc2ccc(C(=O)NCCCC3CCCCC3)cc2)cnn1-c1ccccc1 [SR-318]	-4.749%	-10.9122%	-18.8313%	-35.2993%	18.9481%	11.0125%	12.9949%	20.6922%
CCCCNc1ncc(-c2ccc(CN3CCOCC3)cn2)c(N[C@H]2CC[C@H](O)CC2)n1	-8.957%	-7.3145%	4.583%	12.8118%	-5.509%	-21.7145%	-31.345%	-19.8135%
Cl.Cl.NC1(c2ccc(-c3nc4ccn5c(=O)[nH]nc5c4cc3-c3ccccc3)cc2)CCC1	41.5267%	48.6663%	54.9602%	60.1398%	6.566%	12.3552%	31.5322%	46.784%
CN(C)CCCn1cc(C2=C(c3c[nH]c4ccccc34)C(=O)NC2=O)c2ccccc21 [GF-109203]	176.072%	134.347%	114.591%	104.135%	134.318%	101.39%	90.0252%	89.0171%
Cc1c(NC(=O)c2ccc(C(C)(C)C)cc2)cccc1-c1cn(C)c(=O)c(Nc2ccc(C(=O)N3CCOCC3)cc2)n1	-0.6222%	-11.9993%	-14.8569%	-20.2284%	-19.8949%	-28.4876%	-32.1203%	-24.8408%
O=c1cc(-c2cccc3c2Sc2ccccc2S3)oc(N2CCOCC2)c1 [KU-55933]	55.4841%	58.138%	50.8459%	57.1444%	6.867%	-4.052%	-12.4961%	-6.9587%
CCN(Cc1ccc(Cl)cc1)c1ncc(C(=O)NCCCN2CCCC2=O)c(NC2CCCC2)n1	19.3372%	13.3398%	3.8795%	-6.981%	-0.9186%	-13.7517%	-21.2457%	-16.9406%
O=C(O)CSc1ncnc2cc(-c3cc4ccccc4s3)sc12	-19.6328%	-17.1874%	-14.8161%	-4.092%	0.5897%	-12.2442%	-19.5389%	-8.371%
CC(=O)Nc1ccc2ccn(-c3cc(NC4CC4)n4ncc(C#N)c4n3)c2c1	13.0338%	48.9829%	66.3165%	75.9257%	46.1231%	56.6622%	75.9855%	85.4784%
CC1=C(C#N)[C@@H](c2ccc3[nH]nc(C)c3c2)C(C#N)=C(c2ccc(Cl)cc2)N1 [BAY-827]	-21.2779%	-26.9283%	-30.4241%	-34.9366%	-1.516%	-21.7023%	-24.9956%	-14.7052%
CC1=C(C(=O)Nc2cc3cn[nH]c3cc2F)C(c2ccc(C(F)(F)F)cc2)CC(=O)N1 (stereo unspecified)	-7.959%	-2.49%	15.1812%	22.9185%	-59.3717%	-37.062%	5.409%	47.7199%
Cc1cc(NC(=O)c2cccc(S(F)(F)(F)(F)F)c2)cc(-n2ccn3nc(-c4cccnc4)cc23)c1 [BAY-309]	7.299%	1.781%	3.502%	-2.656%	7.105%	-8.178%	-9.412%	-2.397%
Cl.NC(=O)c1cnc(N[C@@H]2CCCC[C@@H]2N)nc1Nc1cccc(-n2nccn2)c1	9.977%	25.4122%	28.6706%	31.7231%	27.5492%	18.4362%	21.4313%	34.0409%
CNCc1ccc(-c2cc(-c3nc(-c4ccc(S(=O)(=O)C(C)C)cc4)cnc3N)on2)cc1 [BERZOSERTIB]	117.5%	96.408%	85.8575%	85.0285%	54.7938%	32.6309%	31.7276%	38.9692%
COc1cc(N(C)c2ccnc3ccc(C(F)(F)F)cc23)cc(OC)c1OC	-0.7345%	0.8414%	-10.6797%	-10.2278%	8.809%	-16.6853%	-22.3535%	-19.7391%
CN(C)C(=O)/C(C#N)=C/c1ccc(-c2nc3cnc4c(ccn4C)c3n2C2CCCCC2)o1	-5.937%	-19.1708%	-21.5711%	-15.3462%	-7.575%	-15.5162%	-12.7474%	-14.5878%
